The text below walks through data of paper PMC9329436, “Optimization of the 4-anilinoquin(az)oline scaffold as epidermal growth factor receptor (EGFR) inhibitors for chordoma utilizing a toxicology profiling assay platform” (Scientific Reports, 2022).

Common to all, as to format: biochemical
Test [1] deals with T1, 320 wild-type protein kinases (Homo sapiens, UniProt P52564, S207D/T211D).
T1 sequence (P52564 1-334 S207D/T211D): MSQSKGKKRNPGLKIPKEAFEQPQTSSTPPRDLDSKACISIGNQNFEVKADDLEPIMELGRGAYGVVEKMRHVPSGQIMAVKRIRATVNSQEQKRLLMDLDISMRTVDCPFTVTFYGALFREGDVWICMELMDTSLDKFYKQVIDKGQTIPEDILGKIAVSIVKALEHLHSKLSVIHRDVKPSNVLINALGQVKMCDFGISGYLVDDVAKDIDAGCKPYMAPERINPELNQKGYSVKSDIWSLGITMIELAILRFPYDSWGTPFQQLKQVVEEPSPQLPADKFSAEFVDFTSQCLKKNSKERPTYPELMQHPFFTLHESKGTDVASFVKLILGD
The note with it: MKK6 S207D/T211D**, singlicate. An excerpt: (§1) Table S4. Profiling of two compounds at two concentrations against 320 wild-type protein kinases; singlicate measurement; Residual activities (% of control).

For test [2], the target named is 320 wild-type protein kinases (Homo sapiens, UniProt Q14289). To be noted: kinase PYK2, singlicate.
Text: as §1

The target of test [3] is T2, 320 wild-type protein kinases (Homo sapiens, UniProt Q16566).
T2 sequence (Q16566 1-473): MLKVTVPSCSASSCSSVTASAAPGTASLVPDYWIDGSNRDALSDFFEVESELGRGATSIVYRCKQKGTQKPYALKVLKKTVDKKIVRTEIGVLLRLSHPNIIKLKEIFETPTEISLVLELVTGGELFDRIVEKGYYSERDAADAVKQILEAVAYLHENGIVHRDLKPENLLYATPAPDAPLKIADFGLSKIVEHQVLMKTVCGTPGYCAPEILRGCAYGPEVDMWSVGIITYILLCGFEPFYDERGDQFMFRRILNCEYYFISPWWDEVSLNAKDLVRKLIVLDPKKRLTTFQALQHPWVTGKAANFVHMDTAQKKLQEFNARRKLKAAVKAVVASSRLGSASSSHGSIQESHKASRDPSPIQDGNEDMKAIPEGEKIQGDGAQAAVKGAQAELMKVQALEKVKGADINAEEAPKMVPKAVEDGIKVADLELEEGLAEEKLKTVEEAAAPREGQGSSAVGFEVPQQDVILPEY
To be noted: singlicate.
Text: as §1

Test [4] has as its target 320 wild-type protein kinases (Homo sapiens, UniProt P07332). To be noted: FES, singlicate.
Text: as §1

In test [5] the target is T3, 320 wild-type protein kinases (Homo sapiens, UniProt P29322).
T3 sequence (P29322 28-1005): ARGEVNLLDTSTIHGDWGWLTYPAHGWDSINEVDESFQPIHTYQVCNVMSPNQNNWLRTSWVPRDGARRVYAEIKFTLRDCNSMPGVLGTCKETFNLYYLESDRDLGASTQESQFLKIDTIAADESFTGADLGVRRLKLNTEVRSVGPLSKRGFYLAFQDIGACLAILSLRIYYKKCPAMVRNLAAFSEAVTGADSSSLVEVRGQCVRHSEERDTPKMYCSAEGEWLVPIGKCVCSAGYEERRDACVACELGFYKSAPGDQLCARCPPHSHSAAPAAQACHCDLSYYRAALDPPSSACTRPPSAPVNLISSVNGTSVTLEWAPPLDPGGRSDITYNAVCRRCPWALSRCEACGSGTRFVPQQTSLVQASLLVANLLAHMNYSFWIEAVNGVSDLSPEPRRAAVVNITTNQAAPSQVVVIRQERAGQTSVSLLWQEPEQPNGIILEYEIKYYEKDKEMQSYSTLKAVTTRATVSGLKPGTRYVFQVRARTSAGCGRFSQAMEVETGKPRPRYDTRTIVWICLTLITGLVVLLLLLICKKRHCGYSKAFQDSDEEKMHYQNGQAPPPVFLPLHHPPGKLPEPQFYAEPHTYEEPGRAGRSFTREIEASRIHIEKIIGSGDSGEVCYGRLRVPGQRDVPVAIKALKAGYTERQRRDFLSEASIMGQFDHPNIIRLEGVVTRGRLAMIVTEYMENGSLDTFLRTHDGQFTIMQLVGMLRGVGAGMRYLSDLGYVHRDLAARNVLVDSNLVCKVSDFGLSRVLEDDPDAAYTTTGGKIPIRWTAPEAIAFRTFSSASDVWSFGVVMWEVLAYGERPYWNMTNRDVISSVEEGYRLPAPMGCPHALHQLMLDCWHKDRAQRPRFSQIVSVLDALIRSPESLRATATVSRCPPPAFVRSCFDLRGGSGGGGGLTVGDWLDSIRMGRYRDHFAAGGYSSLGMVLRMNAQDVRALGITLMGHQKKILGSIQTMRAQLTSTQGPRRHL
The note with it: singlicate.
Text: as §1

Test [6] addresses 320 wild-type protein kinases (Homo sapiens, UniProt Q16584). To be noted: singlicate.
Text: as §1

Test [7] has as its target 320 wild-type protein kinases (Homo sapiens, UniProt Q5VT25). The note with it: CDC42BPA, singlicate.
Text: as §1

Test [8] has as its target 320 wild-type protein kinases (Homo sapiens, UniProt Q7KZI7). To be noted: singlicate.
Text: as §1

The structures appear in SMILES notation. Like-named read-outs stand apart in the source and are kept apart here.

Sequence of 320 wild-type protein kinases (Homo sapiens, UniProt Q7KZI7) (Q7KZI7 whole entry): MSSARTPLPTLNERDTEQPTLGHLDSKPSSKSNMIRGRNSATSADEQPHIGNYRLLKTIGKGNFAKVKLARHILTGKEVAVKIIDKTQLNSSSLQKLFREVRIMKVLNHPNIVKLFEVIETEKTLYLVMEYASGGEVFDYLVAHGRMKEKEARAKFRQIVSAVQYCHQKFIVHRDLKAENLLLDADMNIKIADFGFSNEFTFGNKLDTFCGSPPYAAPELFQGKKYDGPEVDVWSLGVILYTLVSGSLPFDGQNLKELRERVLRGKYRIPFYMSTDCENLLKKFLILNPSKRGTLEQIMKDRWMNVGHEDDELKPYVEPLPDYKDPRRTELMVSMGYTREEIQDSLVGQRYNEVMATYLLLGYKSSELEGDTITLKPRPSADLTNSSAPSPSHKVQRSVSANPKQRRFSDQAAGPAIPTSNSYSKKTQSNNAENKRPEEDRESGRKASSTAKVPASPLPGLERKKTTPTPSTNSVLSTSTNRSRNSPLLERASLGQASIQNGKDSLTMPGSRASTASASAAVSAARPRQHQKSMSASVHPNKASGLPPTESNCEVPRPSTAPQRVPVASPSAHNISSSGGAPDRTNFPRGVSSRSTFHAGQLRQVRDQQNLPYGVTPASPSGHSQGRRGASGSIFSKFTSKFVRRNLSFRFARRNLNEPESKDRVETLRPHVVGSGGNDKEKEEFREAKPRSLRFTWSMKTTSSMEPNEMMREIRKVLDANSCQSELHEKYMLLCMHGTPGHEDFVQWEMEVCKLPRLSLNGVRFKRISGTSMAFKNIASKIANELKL
Sequence of 320 wild-type protein kinases (Homo sapiens, UniProt Q5VT25) (Q5VT25 whole entry): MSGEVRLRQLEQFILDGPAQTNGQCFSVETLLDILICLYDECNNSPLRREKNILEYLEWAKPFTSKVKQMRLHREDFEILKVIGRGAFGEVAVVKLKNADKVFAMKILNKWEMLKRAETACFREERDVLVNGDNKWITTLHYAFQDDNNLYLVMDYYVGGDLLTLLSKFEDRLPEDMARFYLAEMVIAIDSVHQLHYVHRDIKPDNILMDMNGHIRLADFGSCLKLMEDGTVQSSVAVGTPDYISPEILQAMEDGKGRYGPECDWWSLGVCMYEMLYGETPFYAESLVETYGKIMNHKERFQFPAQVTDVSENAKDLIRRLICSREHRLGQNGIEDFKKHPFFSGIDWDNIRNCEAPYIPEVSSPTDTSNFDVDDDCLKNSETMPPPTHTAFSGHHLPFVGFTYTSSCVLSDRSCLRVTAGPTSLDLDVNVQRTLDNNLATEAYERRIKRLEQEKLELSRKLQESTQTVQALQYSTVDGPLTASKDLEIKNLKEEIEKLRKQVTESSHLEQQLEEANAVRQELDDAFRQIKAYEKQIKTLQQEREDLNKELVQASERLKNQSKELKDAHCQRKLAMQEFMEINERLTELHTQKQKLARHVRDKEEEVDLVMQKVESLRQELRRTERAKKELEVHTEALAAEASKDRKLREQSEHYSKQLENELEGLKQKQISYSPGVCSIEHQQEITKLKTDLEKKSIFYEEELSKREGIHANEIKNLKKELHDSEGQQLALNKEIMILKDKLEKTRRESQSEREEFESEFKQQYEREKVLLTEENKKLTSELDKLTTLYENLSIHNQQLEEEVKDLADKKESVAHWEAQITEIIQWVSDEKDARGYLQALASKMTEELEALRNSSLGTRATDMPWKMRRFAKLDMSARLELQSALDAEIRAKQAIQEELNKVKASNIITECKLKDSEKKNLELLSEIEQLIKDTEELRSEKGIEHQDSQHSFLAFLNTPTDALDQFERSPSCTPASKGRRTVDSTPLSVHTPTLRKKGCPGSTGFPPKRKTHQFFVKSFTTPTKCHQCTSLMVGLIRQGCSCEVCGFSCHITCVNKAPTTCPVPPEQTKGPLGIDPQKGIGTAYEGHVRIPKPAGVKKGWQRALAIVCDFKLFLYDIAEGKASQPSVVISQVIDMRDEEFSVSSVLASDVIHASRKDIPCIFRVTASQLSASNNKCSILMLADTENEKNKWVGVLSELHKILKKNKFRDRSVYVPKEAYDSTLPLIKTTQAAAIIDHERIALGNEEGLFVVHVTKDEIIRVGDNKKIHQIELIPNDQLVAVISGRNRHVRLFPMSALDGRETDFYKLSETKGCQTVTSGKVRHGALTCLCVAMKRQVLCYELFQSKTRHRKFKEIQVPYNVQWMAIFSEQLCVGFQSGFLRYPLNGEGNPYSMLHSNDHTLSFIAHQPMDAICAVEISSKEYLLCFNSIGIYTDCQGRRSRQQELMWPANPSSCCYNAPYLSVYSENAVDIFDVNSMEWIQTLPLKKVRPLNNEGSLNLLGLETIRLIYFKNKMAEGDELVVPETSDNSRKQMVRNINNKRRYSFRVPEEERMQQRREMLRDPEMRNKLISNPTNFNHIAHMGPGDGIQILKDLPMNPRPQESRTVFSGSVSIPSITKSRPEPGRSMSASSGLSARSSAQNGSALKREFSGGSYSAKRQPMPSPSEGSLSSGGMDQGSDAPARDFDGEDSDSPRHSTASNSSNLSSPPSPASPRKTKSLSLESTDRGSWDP
Sequence of 320 wild-type protein kinases (Homo sapiens, UniProt Q16584) (Q16584 whole entry): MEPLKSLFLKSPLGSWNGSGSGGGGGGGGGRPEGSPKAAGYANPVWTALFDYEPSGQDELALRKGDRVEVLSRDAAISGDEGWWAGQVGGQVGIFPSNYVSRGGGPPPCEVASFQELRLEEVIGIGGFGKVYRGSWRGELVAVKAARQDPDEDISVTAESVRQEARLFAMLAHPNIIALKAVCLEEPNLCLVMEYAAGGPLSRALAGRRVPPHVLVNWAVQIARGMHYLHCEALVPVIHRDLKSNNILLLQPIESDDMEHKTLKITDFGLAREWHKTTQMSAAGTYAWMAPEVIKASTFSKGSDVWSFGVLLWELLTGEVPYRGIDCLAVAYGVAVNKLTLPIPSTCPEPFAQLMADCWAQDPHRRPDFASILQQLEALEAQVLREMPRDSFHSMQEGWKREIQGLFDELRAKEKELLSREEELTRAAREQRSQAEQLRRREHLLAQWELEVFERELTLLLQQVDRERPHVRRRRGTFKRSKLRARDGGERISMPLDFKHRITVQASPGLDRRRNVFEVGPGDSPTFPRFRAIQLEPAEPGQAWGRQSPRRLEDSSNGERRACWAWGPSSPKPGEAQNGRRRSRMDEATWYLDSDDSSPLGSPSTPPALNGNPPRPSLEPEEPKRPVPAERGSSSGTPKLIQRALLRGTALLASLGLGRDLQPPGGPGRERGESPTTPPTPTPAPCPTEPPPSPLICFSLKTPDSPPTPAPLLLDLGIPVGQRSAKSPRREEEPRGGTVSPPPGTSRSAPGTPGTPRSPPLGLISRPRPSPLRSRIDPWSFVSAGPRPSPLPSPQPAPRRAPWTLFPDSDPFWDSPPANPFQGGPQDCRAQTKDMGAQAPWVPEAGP
Sequence of 320 wild-type protein kinases (Homo sapiens, UniProt P07332) (P07332 whole entry): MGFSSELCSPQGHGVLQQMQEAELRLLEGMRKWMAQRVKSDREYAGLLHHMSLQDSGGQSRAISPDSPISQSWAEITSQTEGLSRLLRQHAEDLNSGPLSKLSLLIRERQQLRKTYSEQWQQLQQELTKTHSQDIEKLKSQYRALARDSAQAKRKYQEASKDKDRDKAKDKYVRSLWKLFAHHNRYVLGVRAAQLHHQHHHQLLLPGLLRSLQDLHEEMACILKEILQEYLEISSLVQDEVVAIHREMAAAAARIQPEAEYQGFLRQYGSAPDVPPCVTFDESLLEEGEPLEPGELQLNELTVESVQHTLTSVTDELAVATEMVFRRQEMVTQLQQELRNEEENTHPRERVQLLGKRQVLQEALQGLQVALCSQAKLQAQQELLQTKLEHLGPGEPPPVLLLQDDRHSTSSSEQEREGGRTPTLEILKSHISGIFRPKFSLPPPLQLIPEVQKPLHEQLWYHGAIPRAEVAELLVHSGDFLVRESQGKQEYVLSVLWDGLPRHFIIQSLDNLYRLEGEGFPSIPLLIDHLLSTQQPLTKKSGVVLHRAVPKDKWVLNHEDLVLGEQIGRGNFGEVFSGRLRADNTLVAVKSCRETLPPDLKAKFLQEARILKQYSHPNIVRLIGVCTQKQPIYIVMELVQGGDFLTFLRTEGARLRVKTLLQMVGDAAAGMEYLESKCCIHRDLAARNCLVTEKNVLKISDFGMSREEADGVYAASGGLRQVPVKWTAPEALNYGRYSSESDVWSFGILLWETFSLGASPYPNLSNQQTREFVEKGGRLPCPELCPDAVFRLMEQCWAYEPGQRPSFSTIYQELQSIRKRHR

Consider `C#Cc1cc(Nc2ncnc3cc(I)ccc23)ccc1Cl` [Compound 41], for which the Residual activity was 98 % of control in test [1] (1.0E-06 M); 90 % of control in test [1] (1.0E-07 M); 91 % of control in test [3] (CAMK4, 1.0E-06 M); 84 % of control in test [3] (CAMK4, 1.0E-07 M); 93 % of control in test [4] (1.0E-06 M); 118 % of control in test [4] (1.0E-07 M). Also, the Residual activity in test [5] (EPHA8, 1.0E-06 M) is on record as 118 % of control; in test [5] (EPHA8, 1.0E-07 M), 110 % of control; in test [6] (MAP3K11, 1.0E-06 M) it was 73 % of control; in test [6] (MAP3K11, 1.0E-07 M) it was 75 % of control; in test [7] (1.0E-06 M), 141 % of control; in test [7] (1.0E-07 M), 140 % of control. In addition, the Residual activity in test [8] (MARK2, 1.0E-06 M) is given as 114 % of control; in test [8] (MARK2, 1.0E-07 M) it was 104 % of control. Moreover, the “Residual activity, PYK2” value in test [2] (assay conc. 1.0E-06 M) is 97 % of control; in test [2] (assay conc. 1.0E-07 M) it was 103 % of control.
Turning to `C#Cc1cc(Nc2ncnc3cc(OC)c(OC)cc23)ccc1Cl` [Compound 45], the Residual activity is 90 % of control in test [1] (1.0E-06 M); 95 % of control in test [1] (1.0E-07 M); 89 % of control in test [3] (CAMK4, 1.0E-06 M); 84 % of control in test [3] (CAMK4, 1.0E-07 M); 97 % of control in test [4] (1.0E-06 M); 107 % of control in test [4] (1.0E-07 M). The Residual activity in test [5] (EPHA8, 1.0E-06 M) is 103 % of control; in test [5] (EPHA8, 1.0E-07 M), 112 % of control; in test [6] (MAP3K11, 1.0E-06 M) it was 59 % of control; in test [6] (MAP3K11, 1.0E-07 M), 79 % of control; in test [7] (1.0E-06 M) it was 113 % of control; in test [7] (1.0E-07 M), 114 % of control. The Residual activity is given as 90 % of control in test [8] (MARK2, 1.0E-06 M) and 103 % of control in test [8] (MARK2, 1.0E-07 M). Further, the “Residual activity, PYK2” value in test [2] (assay conc. 1.0E-06 M) is reported as 92 % of control; in test [2] (assay conc. 1.0E-07 M), 95 % of control.
